Source: article PMC2728764 (ACS chemical biology, 2008)

Assays:
AdmJ = test: ATP-[…]PPi exchange assay; assay type: biochemical, Pantoea agglomerans; settings: 5 mM ATP, 1 mM PPi, 10 mM MgCl2, 5 mM TCEP, 75 mM Tris pH 7.5, RT
AdmH = AdmH (Pantoea agglomerans, UniProt Q84FL5); test: chiral radio-HPLC; assay type: biochemical; settings: labelled compound ([14C]-L-Phe, 100 µM); 20 mM tricine pH 8.25, 30 °C

Km (AdmJ): 130 ± 34 µM
SMILES: N[C@@H](CC(=O)O)c1ccccc1 [(S)-β-Phe]
chiral radio-HPLC (AdmH): The β-Phe generated by AdmH was found to be solely (S)-β-Phe
